What all share (type): in vivo
In experiment [1] the test system is Echinochloa crus-galli (ECHCG). Kind of experiment: Post-emergence herbicidal activity, glasshouse pot test. The following applies: rate 250 g/ha, evaluated after 13 days; for pest or weed control at 250 g/ha: Echinochloa crus-galli, 312 h, glasshouse, read-out: Post-emergence activity ECHCG (100=total damage to plant; 0=no damage to plant). An outline of the steps:
(§1)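 Rating: 0 (no damage) to 100 (total damage), 13 days after application. Application: aqueous spray from a.i. in acetone/water (50:50) + 0.5% Tween 20, one day (pre) or 8 days (post) after sowing. Glasshouse: 24/16° C, 14 h light, 65% humidity.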

Experiment [2] deals with Lolium perenne (LOLPE). The description is as above. The following applies: rate 250 g/ha, evaluated after 13 days; for pest or weed control at 250 g/ha: Lolium perenne, 312 h, glasshouse, read-out: Post-emergence activity LOLPE (100=total damage to plant; 0=no damage to plant). An outline of the steps: as §1
Experiment [3] concerns Avena fatua (AVEFA). Described as above. The note with it: rate 250 g/ha, evaluated after 13 days; for pest or weed control at 250 g/ha: Avena fatua, 312 h, glasshouse, read-out: Post-emergence activity AVEFA (100=total damage to plant; 0=no damage to plant). An outline of the steps:
as §1

Experiment [4] has as its system Alopecurus myosuroides (ALOMY). The experiment is described as above. The note with it: rate 250 g/ha, evaluated after 13 days; for pest or weed control at 250 g/ha: Alopecurus myosuroides, 312 h, glasshouse, read-out: Post-emergence activity ALOMY (100=total damage to plant; 0=no damage to plant). An outline of the steps: as §1
Experiment [5] relates to Echinochloa crus-galli (ECHCG). Kind of experiment: Pre-emergence herbicidal activity, glasshouse pot test. The note with it: evaluated after 13 days; for pest or weed control at 250 g/ha: Echinochloa crus-galli, 312 h, Rate 250 g/ha, pre-emergence spray, read-out: Pre-emergence activity ECHCG (100=total damage to plant; 0=no damage to plant); for ECHCG damage to plant (100=total damage to plant; 0=no damage to plant): pre-emergence, rate 250 g/ha. An outline of the steps:
as §1

The subject of experiment [6] is Lolium perenne (LOLPE). Described as above. The following applies: evaluated after 13 days; for pest or weed control at 250 g/ha: Lolium perenne, 312 h, Rate 250 g/ha, pre-emergence spray, read-out: Pre-emergence activity LOLPE (100=total damage to plant; 0=no damage to plant); for LOLPE damage to plant (100=total damage to plant; 0=no damage to plant): pre-emergence, rate 250 g/ha. The essentials: as §1

In experiment [7] the test system is Avena fatua (AVEFA). Described as above. The note with it: evaluated after 13 days; for pest or weed control at 250 g/ha: Avena fatua, 312 h, Rate 250 g/ha, pre-emergence spray, read-out: Pre-emergence activity AVEFA (100=total damage to plant; 0=no damage to plant); for AVEFA damage to plant (100=total damage to plant; 0=no damage to plant): pre-emergence, rate 250 g/ha. The essentials:
as §1

Experiment [8] has as its system Alopecurus myosuroides (ALOMY). The experiment is described as above. The following applies: evaluated after 13 days; for pest or weed control at 250 g/ha: Alopecurus myosuroides, 312 h, Rate 250 g/ha, pre-emergence spray, read-out: Pre-emergence activity ALOMY (100=total damage to plant; 0=no damage to plant); for ALOMY damage to plant (100=total damage to plant; 0=no damage to plant): pre-emergence, rate 250 g/ha. The essentials:
as §1

The values below come from patent US8865623B2, “Herbicidally active cyclic diones and derivatives thereof, processes for their preparation, compositions, and method of controlling weeds” (Syngenta Limited, priority 2009, dated 2014).

As to `CCc1ccc(Oc2nc3ccccc3cc2C)cc1C1=C(O)C(C)(C)OC(C)(C)C1=O` [Example A-253], the pest or weed control at 250 g/ha in experiment [1] amounted to 70%; in experiment [2], 70%; in experiment [3], 40%; in experiment [4], 50%; in experiment [5], 80%; in experiment [6] it was 100%. Also, the pest or weed control at 250 g/ha is 30% in experiment [7] and 70% in experiment [8].
On to `CCc1ccc(Oc2ccc(Br)cc2)cc1C1=C(O)[C@@H]2CC[C@](C)(C1=O)C2(C)C` [Example A-234], for which the pest or weed control at 250 g/ha in experiment [1] came to 100%; in experiment [2] it was 80%; in experiment [3] it was 90%; in experiment [4] it was 80%; in experiment [5] it was 100%; in experiment [6], 90%. The pest or weed control at 250 g/ha in experiment [7] amounted to 40%; in experiment [8] it was 70%.
Turning to `CCc1ccc(Oc2ccc(Cl)cc2OC)cc1C1=C(O)C(C)(C)OC(C)(C)C1=O` [Example A-181], the pest or weed control at 250 g/ha in experiment [1] is 30%; in experiment [2] it was 20%; in experiment [3] it was 0%; in experiment [4], 0%; in experiment [5], 0%; in experiment [6] it was 0%. In addition, the pest or weed control at 250 g/ha in experiment [7] and in experiment [8] was 0% in each case.
Consider `CCc1ccc(Oc2nc3ccc(Cl)cc3o2)cc1C1=C(O)C(C)(C)OC(C)(C)C1=O` [Example A-188], for which the pest or weed control at 250 g/ha in experiment [1] is 100%; in experiment [2] it was 100%; in experiment [3] it was 100%; in experiment [4] it was 100%; in experiment [5], 90%; in experiment [6], 100%. Further, the pest or weed control at 250 g/ha in experiment [7] and in experiment [8] was 90% in each case.
Take `CCc1ccc(Oc2ccc3ccccc3n2)cc1C1=C(O)CC(C)(C)CC1=O` [Example A-292]: the pest or weed control at 250 g/ha in experiment [1] was 100%; in experiment [2], 90%; in experiment [3] it was 90%; in experiment [4], 100%; in experiment [5] it was 100%; in experiment [6], 100%. The pest or weed control at 250 g/ha in experiment [7] was found to be 50%; in experiment [8], 90%.
With `CCc1ccc(Oc2ccc(Cl)c(F)c2)cc1C1=C(O)C(C)(C)CCC1=O` [Example A-52], the pest or weed control at 250 g/ha was determined as 90% in experiment [1]; 50% in experiment [2]; 40% in experiment [3]; 30% in experiment [4]; 60% in experiment [5]; 70% in experiment [6]. Moreover, the pest or weed control at 250 g/ha in experiment [7] was 20%; in experiment [8] it was 40%.
With `CCc1ccc(Oc2ncc(C(F)(F)F)cc2C(F)(F)F)cc1C1=C(O)C(C)(C)OC(C)(C)C1=O` [Example A-148], the pest or weed control at 250 g/ha in experiment [1] stood at 100%; in experiment [2] it was 90%; in experiment [3], 100%; in experiment [4], 90%; in experiment [5] it was 90%; in experiment [6] it was 100%. For the same compound, the pest or weed control at 250 g/ha in experiment [7] came out at 90%; in experiment [8], 50%.
On to `CC1(C)OC(C)(C)C(O)=C(c2cc(Oc3cnc4cc(Cl)ccc4n3)ccc2C2CC2)C1=O` [Example A-279], for which the pest or weed control at 250 g/ha in experiment [1], in experiment [2], in experiment [3], in experiment [4], in experiment [5] and in experiment [6] was 100% in each case. Besides, the figures for the pest or weed control at 250 g/ha in experiment [7] and in experiment [8] were 100% and 90%, respectively.
For the compound `CCc1ccc(Oc2nc3ccc([N+](=O)[O-])cc3s2)cc1C1=C(O)CC2(CCOCC2)CC1=O` [Example A-265], the pest or weed control at 250 g/ha in experiment [1] was determined as 100%; in experiment [2], 70%; in experiment [3], 70%; in experiment [4] it was 70%; in experiment [5], 90%; in experiment [6], 80%. Also, the results for the pest or weed control at 250 g/ha in experiment [7] and in experiment [8] were 0% and 60%, respectively.
Consider `CCc1ccc(Oc2nc3ccc(OC)cc3s2)cc1C1=C(O)CC2(CCOCC2)CC1=O` [Example A-264], for which the pest or weed control at 250 g/ha in experiment [1] turned out to be 100%; in experiment [2], 100%; in experiment [3] it was 90%; in experiment [4], 90%; in experiment [5], 100%; in experiment [6], 90%. Further, the pest or weed control at 250 g/ha was determined as 80% in experiment [7] and 90% in experiment [8].
For `CCc1ccc(Oc2ccc(C(F)(F)F)c(C#N)c2)cc1C1=C(O)C(C)(C)OC(C)(C)C1=O` [Example A-210], the pest or weed control at 250 g/ha was found to be 100% in experiment [1]; 100% in experiment [2]; 90% in experiment [3]; 90% in experiment [4]; 60% in experiment [5]; 20% in experiment [6]. The pest or weed control at 250 g/ha in experiment [7] was 10%; in experiment [8] it was 30%.
Regarding `CCc1ccc(Oc2ccc(C#N)c(F)c2)cc1C1=C(O)C(C)(C)OC(C)(C)C1=O` [Example A-116], the pest or weed control at 250 g/ha in experiment [1] amounted to 100%; in experiment [2], 40%; in experiment [3], 30%; in experiment [4], 80%; in experiment [5], 20%; in experiment [6], 20%. In addition, the pest or weed control at 250 g/ha in experiment [7] and in experiment [8] was 0% throughout.
On to `CCc1ccc(Oc2ccc(C#N)cc2F)cc1C1=C(OC(=O)OC)C(C)(C)OC(C)(C)C1=O` [Example P-4], for which the “ECHCG damage to plant (100=total damage to plant; 0=no damage to plant)” value in experiment [1] and in experiment [5] was 100 each time. In addition, the results for the “LOLPE damage to plant (100=total damage to plant; 0=no damage to plant)” value in experiment [2] and in experiment [6] were 90 and 100, respectively. Also, the “AVEFA damage to plant (100=total damage to plant; 0=no damage to plant)” value in experiment [3] and in experiment [7] was 60 each time. In addition, the “ALOMY damage to plant (100=total damage to plant; 0=no damage to plant)” value in experiment [4] was found to be 90; in experiment [8], 80.
Take `CCc1ccc(Oc2cccc(F)c2F)cc1C1=C(O)C(C)(C)OC(C)(C)C1=O` [Example A-16]: the pest or weed control at 250 g/ha turned out to be 80% in experiment [1]; 20% in experiment [2]; 0% in experiment [3]; 0% in experiment [4]; 100% in experiment [5]; 0% in experiment [6]. The pest or weed control at 250 g/ha in experiment [7] and in experiment [8] was 0% throughout.
For `CCC(=O)OC1=C(c2cc(Oc3ccc(C#N)cc3F)ccc2CC)C(=O)C(C)(C)OC1(C)C` [Example P-2], the “ECHCG damage to plant (100=total damage to plant; 0=no damage to plant)” value in experiment [1] and in experiment [5] was 100 each time. Besides, the “LOLPE damage to plant (100=total damage to plant; 0=no damage to plant)” value in experiment [2] came out at 90; in experiment [6], 100. The “AVEFA damage to plant (100=total damage to plant; 0=no damage to plant)” value in experiment [3] and in experiment [7] was 70 throughout. Besides, the “ALOMY damage to plant (100=total damage to plant; 0=no damage to plant)” value is reported as 90 in experiment [4] and 80 in experiment [8].
For the compound `CCc1ccc(Oc2nnc3cc(Cl)ccc3n2)cc1C1=C(O)C(C)(C)OC(C)(C)C1=O` [Example A-237], the pest or weed control at 250 g/ha in experiment [1] was determined as 70%; in experiment [2], 10%; in experiment [3], 10%; in experiment [4], 10%; in experiment [5], 40%; in experiment [6], 20%. Besides, the pest or weed control at 250 g/ha in experiment [7] and in experiment [8] was 10% throughout.
